Experimental data reported in ChEMBL document CHEMBL6121046, “Discovery of Novel Hydrazide-Based HDAC3 Inhibitors as Epigenetic Immunomodulators for Cancer Immunotherapy” (J Med Chem, 2025).
Activity calls are given as the source filed them. No cut-off for these calls is given here.

Columns and labels:
Mus musculus [1] = assay: (§1) Immunomodulatory effect in C57BL/6 mouse allografted mouse MC38 cells assessed as increase in tumor infiltrating lymphocytes by measuring increase in CD8+ T helper cells in mouse spleen in presence of NP19 PD-L1 inhibitor at 50 mg/kg, po treated 5 days after cell inoculation 19 th day by flow cytometry analysis (reference value: 13.6%); format: functional; conditions: time 15 day
MC-38 [2] = assay: Induction of ROS production in mouse MC38 cells assessed as increase in intracellular ROS level measured after 48 hrs by DCFH-DA/Brightfield - fluorescence imaging analysis; format: functional, cell-based
[3] = Toxicity in C57BL/6 mouse allografted with mouse MC38 cells assessed as pathological changes in heart at 50 mg/kg, po treated 5 days after cell inoculation 19 th day by hematoxylin and eosin analysis; format: organism-based; conditions: in vivo, 360 h, time 15 day
[4] = Toxicity in C57BL/6 mouse allografted with mouse MC38 cells assessed as creatinine (CRE) level in serum at 50 mg/kg, po treated 5 days after cell inoculation 19 th day; format: organism-based; conditions: in vivo, 360 h, time 15 day
Mus musculus [5] = assay: Induction of PD-L1 expression in tumor in C57BL/6 mouse allografted with mouse MC38 cells in presence of NP19 PD-L1 inhibitor at 50 mg/kg, po treated 5 days after cell inoculation 19 th day by immunofluorescence analysis; format: functional, organism-based; conditions: time 15.0 day
MC-38 [6] = assay: In vivo antitumor activity against mouse MC38 cells allografted in C57BL/6 mouse assessed as apoptosis in tumor at 50 mg/kg, po treated 5 days after cell inoculation 19 th day relative to control; format: functional, organism-based; conditions: time 15.0 day
[7] = Toxicity in C57BL/6 mouse allografted with mouse MC38 cells assessed as alkaline phosphatase (AKP) level in serum at 50 mg/kg, po treated 5 days after cell inoculation 19 th day; format: organism-based; conditions: in vivo, 360 h, time 15 day
[8] = AUC (0 to infinity) in Sprague-Dawley rat at 20 mg/kg, iv measured upto 12 hrs by LC-MS/MS analysis; format: ADME, organism-based; conditions: in vivo
[9] = Clearance in Sprague-Dawley rat at 20 mg/kg, po measured upto 12 hrs by LC-MS/MS analysis; format: ADME, organism-based; conditions: in vivo
[10] = AUC (0 to t) in Sprague-Dawley rat at 20 mg/kg, po measured upto 12 hrs by LC-MS/MS analysis; format: ADME, organism-based; conditions: in vivo
Mus musculus [11] = assay: Immunomodulatory effect in C57BL/6 mouse allografted with mouse MC38 cells assessed as increase in tumor infiltrating lymphocytes by measuring increase in CD3+ CD4+ cells at 50 mg/kg, po treated 5 days after cell inoculation 19 th day by flow cytometry analysis; format: functional, organism-based; conditions: time 15.0 day
MC-38 [12] = assay: In vivo antitumor activity against mouse MC38 cells allografted in C57BL/6 mouse assessed as decrease in […] positive cells in tumor in presence of NP19 PD-L1 inhibitor at 50 mg/kg, po treated 5 days after cell inoculation 19 th day by immunofluorescence analysis; format: functional, organism-based; conditions: time 15.0 day
Mus musculus [13] = assay: as §1, with “CD4+” for “CD8+”, “tumor” for “mouse spleen”, “2.57%)” for “13.6%)”; format: functional; conditions: time 15 day
Mus musculus [14] = assay: as §1, with “lymph nodes” for “spleen”, “20.3%)” for “13.6%)”; format: functional; conditions: time 15 day
[15] = Cmax in Sprague-Dawley rat at 20 mg/kg, iv measured upto 12 hrs by LC-MS/MS analysis; format: ADME, organism-based; conditions: in vivo
[16] = MRT (0 to infinity) in Sprague-Dawley rat at 20 mg/kg, po measured upto 12 hrs by LC-MS/MS analysis; format: ADME, organism-based; conditions: in vivo
[17] = AUC (0 to t) in Sprague-Dawley rat at 20 mg/kg, iv measured upto 12 hrs by LC-MS/MS analysis; format: ADME, organism-based; conditions: in vivo
[18] = Oral bioavailability in Sprague-Dawley rat at 20 mg/kg measured upto 12 hrs by LC-MS/MS analysis; format: ADME, organism-based; conditions: in vivo
[19] = MRT (0 to t) in Sprague-Dawley rat at 20 mg/kg, po measured upto 12 hrs by LC-MS/MS analysis; format: ADME, organism-based; conditions: in vivo
[20] = Volume of distribution at steady state in Sprague-Dawley rat at 20 mg/kg, iv measured upto 12 hrs by LC-MS/MS analysis; format: ADME, organism-based; conditions: in vivo, read-out: Vdss
Mus musculus [21] = assay: Induction of PD-L1 expression in tumor in C57BL/6 mouse allografted with mouse MC38 cells at 50 mg/kg, po treated 5 days after cell inoculation 19 th day by immunofluorescence analysis; format: functional, organism-based; conditions: time 15.0 day
[22] = Toxicity in C57BL/6 mouse allografted with mouse MC38 cells assessed as body weight loss in presence of NP19 PD-L1 inhibitor at 50 mg/kg, po treated 5 days after cell inoculation 19 th day; format: organism-based; conditions: in vivo, 360 h, time 15 day
[23] = Tmax in Sprague-Dawley rat at 20 mg/kg, po measured upto 12 hrs by LC-MS/MS analysis; format: ADME, organism-based; conditions: in vivo
Mus musculus [24] = assay: as §1, with “lymph nodes” for “spleen in presence of NP19 PD-L1 inhibitor”, “20.3%)” for “13.6%)”; format: functional; conditions: time 15 day
Mus musculus [25] = assay: (§2) Immunomodulatory effect in C57BL/6 mouse allografted mouse MC38 cells assessed as increase in tumor infiltrating lymphocytes by measuring increase in CD8+ T […] cells in tumor at 50 mg/kg, po treated 5 days after cell inoculation 19 th day by flow cytometry analysis (reference value: 2.32%); format: functional; conditions: time 15 day
[26] = Acute toxicity in C57 mouse assessed as body weight change; conditions: in vivo
[27] = Tmax in Sprague-Dawley rat at 20 mg/kg, iv measured upto 12 hrs by LC-MS/MS analysis; format: ADME, organism-based; conditions: in vivo
MC-38 [28] = assay: Induction of mitochondrial membrane damage in mouse MC38 cells assessed as decrease in JC-1 aggregation by measuring red fluorescence at 8 uM measured after 48 hrs (reference value: 96.70%); format: functional; set-up: scale not given: the % may be the effect or the level left
Mus musculus [29] = assay: as §2, with “[…] in mouse spleen at 50” for “cells in tumor at 50”, “(reference value: 13.6%)” for “(reference value: 2.32%)”; format: functional; conditions: time 15 day
[30] = Toxicity in C57BL/6 mouse allografted with mouse MC38 cells assessed as pathological changes in spleen at 50 mg/kg, po treated 5 days after cell inoculation 19 th day by hematoxylin and eosin analysis; format: organism-based; conditions: in vivo, 360 h, time 15 day
Mus musculus [31] = assay: Induction of acetylated H3 level in tumor in C57BL/6 mouse allografted with mouse MC38 cells in presence of NP19 PD-L1 inhibitor at 50 mg/kg, po treated 5 days after cell inoculation 19 th day by immunofluorescence analysis; format: functional, organism-based; conditions: time 15.0 day
MC-38 [32] = assay: Induction of mitochondrial membrane damage in mouse MC38 cells assessed as increase in JC-1 monomers by measuring green fluorescence at 1 uM measured after 48 hrs (reference value: 3.13%); format: functional
[33] = Toxicity in C57BL/6 mouse allografted with mouse MC38 cells assessed as pathological changes in kidney at 50 mg/kg, po treated 5 days after cell inoculation 19 th day by hematoxylin and eosin analysis; format: organism-based; conditions: in vivo, 360 h, time 15 day
[34] = Cmax in Sprague-Dawley rat at 20 mg/kg, po measured upto 12 hrs by LC-MS/MS analysis; format: ADME, organism-based; conditions: in vivo

SMILES: CCCNNC(=O)c1ccc(CNC(=O)c2cnc(-c3ccc4occc4c3)[nH]2)cc1
- Activity (Mus musculus [1]): 17.4%
- Activity (MC-38 [2]): Dose-dependent-effect
- Activity [3]: Non-toxic
- Activity [4]: Non-toxic
- Activity (Mus musculus [5]): Active
- Activity (MC-38 [6]): Active
- Activity [7]: Non-toxic
- AUC [8]: 1249.2 ng·h/mL
- CL/F [9]: 259 mL/min/kg
- AUC(0-t) at 12 h [10]: 1420 ng·h/mL
- Activity (Mus musculus [11]): Active
- Activity (MC-38 [12]): Active
- Activity (Mus musculus [13]): 3.11%
- Activity (Mus musculus [14]): 31.6%
- Cmax [15]: 1210 ng/mL
- MRT inf [16]: 4.33 h
- AUC(0-t) at 12 h [17]: 1250 ng·h/mL
- F [18]: 11.5%
- MRT last at 12 h [19]: 4.2 h
- Vd [20]: 2.35 L/kg
- Activity (Mus musculus [21]): Active
- Activity [22]: Non-toxic
- Tmax [23]: 52.8 min
- Activity (Mus musculus [24]): 29.6%
- Activity (Mus musculus [25]): 5.29%
- LD50 [26]: > 200 mg/kg
- Tmax [27]: 4.8 min
- Activity (MC-38 [28]): 71.37%
- Activity (Mus musculus [29]): 14.1%
- Activity [30]: Non-toxic
- Activity (Mus musculus [31]): Active
- Activity (MC-38 [32]): 6.34%
- Activity [33]: Non-toxic
- Cmax [34]: 347 ng/mL
